≈ marks a conversion by molar mass, not a printed value. Values belong to the compound of their own block, whether it stands above or below them.
How the values were obtained:
[1] = tested on: Staphylococcus aureus (ATCC29213); experiment: In-vitro anti-bacterial activity, microtitre plate assay, IC90 determination (non-mycobacterial strains); type: cell-based; conditions: 90% inhibitory concentration for bacterial growth, resazurin fluorescence; for IC90 STA B29213: 24 hours
Method: D.2. In-Vitro Method for Testing Compounds for Anti-Bacterial Activity Against Various Non-Mycobacterial Strains
Preparation of Bacterial Suspensions for Susceptibility Testing:
The bacteria used in this study were grown overnight in flasks containing 100 ml Mueller-Hinton Broth (Becton Dickinson—cat. no. 275730) in sterile de-ionized water, with shaking, at 37° C. Stocks (0.5 ml/tube) were stored at −70° C. until use. Bacteria titrations were performed in microtiter plates to detect the TCID50, in which TCID50 represents the dilution that gives rise to bacterial growth in 50% of inoculated cultures. In general, an inoculum level of approximately 100 TCID50 was used for susceptibility testing.
Anti Bacterial Susceptibility Testing: IC90 Determination
Flat-bottom, sterile 96-well plastic microtiter plates were filled with 180 μl of sterile deionized water, supplemented with 0.25% BSA. Subsequently, stock solutions (7.8× final test concentration) of compounds were added in 45 μl volumes in column 2 Serial five-fold dilutions (45 μl in 180 μl) were made directly in the microtiter plates from column 2 to reach column 11. Untreated control samples with (column 1) and without (column 12) inoculum were included in each microtiter plate. Depending on the bacteria type, approximately 10 to 60 CFU per well of bacteria inoculum (100 TCID50), in a volume of 100 μl in 2.8× Mueller-Hinton broth medium, was added to the rows A to H, except column 12. The same volume of broth medium without inoculum was added to column 12 in row A to H. The cultures were incubated at 37° C. for 24 hours under a normal atmosphere (incubator with open air valve and continuous ventilation). At the end of incubation, one day after inoculation, the bacterial growth was quantitated fluorometrically. Therefore resazurin (0.6 mg/ml) was added in a volume of 20 μl to all wells 3 hours after inoculation, and the plates were re-incubated overnight. A change in colour from blue to pink indicated the growth of bacteria. The fluorescence was read in a computer-controlled fluorometer (Cytofluor Biosearch) at an excitation wavelength of 530 nm and an emission wavelength of 590 nm. The % growth inhibition achieved by the compounds was calculated according to standard methods. The IC90 (expressed in μg/ml) was defined as the 90% inhibitory concentration for bacterial growth.

[2] = tested on: Mycobacterium smegmatis (ATCC607); experiment: In-vitro anti-bacterial activity against strain M. Smegmatis ATCC607; type: cell-based; conditions: 90% inhibitory concentration for bacterial growth, Alamar Blue fluorescence; for IC90 MSM 607: 48 hours; for IC90: Mycolicibacterium smegmatis, ATCC607, 48 h, read-out: IC90 MSM 607
Method: D.1. In-Vitro Method for Testing Compounds for Anti-Bacterial Activity Against Strain M. Smegmatis ATCC607
Flat-bottom, sterile 96-well plastic microtiter plates were filled with 180 μl of sterile deionized water, supplemented with 0.25% BSA. Subsequently, stock solutions (7.8× final test concentration) of compounds were added in 45 μl volumes to a series of duplicate wells in column 2 so as to allow evaluation of their effects on bacterial growth. Serial five-fold dilutions (45 μl in 180 μl) were made directly in the microtiter plates from column 2 to 11 using a customised robot system (Zymark Corp., Hopkinton, Mass.). Pipette tips were changed after every 3 dilutions to minimize pipetting errors with high hydrophobic compounds. Untreated control samples with (column 1) and without (column 12) inoculum were included in each microtiter plate. Approximately 250 CFU per well of bacteria inoculum, in a volume of 100 μl in 2.8× Mueller-Hinton broth medium, was added to the rows A to H, except column 12. The same volume of broth medium without inoculum was added to column 12 in row A to H. The cultures were incubated at 37° C. for 48 hours in a humidified 5% CO2 atmosphere (incubator with open air valve and continuous ventilation). At the end of incubation, two days after inoculation, the bacterial growth was quantitated fluorometrically. Therefore Alamar Blue (10×) was added to all wells in a volume of 20 μl and plates were incubated for another 2 hours at […]
The fluorescence was read in a computer-controlled fluorometer (Cytofluor, Biosearch) at an excitation wavelength of 530 nm and an emission wavelength of 590 nm (gain 30). The percentage growth inhibition achieved by the compounds was calculated according to standard methods and expressed as IC90 (μg/ml) which defines the 90% inhibitory concentration for bacterial growth.

Compound: COc1nc2ccc(SC)cc2cc1C(c1cccc(Cl)c1)C1(O)CCNC(c2ccc(F)cc2C)C1 (stereo not drawn) [Compound 147]
IC90 STA B29213 [1]: 3.39 mg/L (≈ 6.31 µM)
IC90 MSM 607 [2]: 1.51 mg/L (≈ 2.81 µM)

Compound: COc1nc2ccc(SC)cc2cc1C(c1cccc(Cl)c1)C1(O)CCNC(c2ccc(F)cc2C)C1 (stereo not drawn) [Compound 148]
IC90 STA B29213 [1]: 3.39 mg/L (≈ 6.31 µM)
IC90 MSM 607 [2]: 1.70 mg/L (≈ 3.17 µM)

Compound: COc1nc2ccc(Br)cc2cc1C(c1cccc(Cl)c1)C1(O)CCNC(c2ccc(F)cc2C)C1 (stereo not drawn) [Compound 149]
IC90 STA B29213 [1]: 5.63 mg/L (≈ 9.88 µM)
IC90 MSM 607 [2]: 2.52 mg/L (≈ 4.42 µM)

Compound: COc1nc2ccc(Br)cc2cc1C(c1cccc(Cl)c1)C1(O)CCNC(c2ccc(F)cc2C)C1 (stereo not drawn) [Compound 150]
IC90 STA B29213 [1]: 2.63 mg/L (≈ 4.61 µM)
IC90 MSM 607 [2]: 1.66 mg/L (≈ 2.91 µM)

Compound: COc1nc2ccc(Br)cc2cc1C(c1cccc(Cl)c1)C1(O)CCNC(c2ccc(F)cc2C)C1 (stereo not drawn) [Compound 151]
IC90 STA B29213 [1]: 5.26 mg/L (≈ 9.23 µM)
IC90 MSM 607 [2]: 2.35 mg/L (≈ 4.12 µM)

Compound: COc1nc2ccc(Br)cc2cc1C(c1cccc(Cl)c1)C1(O)CCNC(c2ccc(F)cc2C)C1 (stereo not drawn) [Compound 152]
IC90 STA B29213 [1]: 2.78 mg/L (≈ 4.88 µM)
IC90 MSM 607 [2]: 1.76 mg/L (≈ 3.09 µM)

Compound: Cc1cc(F)ccc1C1CC(O)(C(c2cccc(Cl)c2)c2cc3cc(S(C)(=O)=O)ccc3[nH]c2=O)CCN1 (stereo not drawn) [Compound 159]
IC90 STA B29213 [1]: >14.69 mg/L
IC90 MSM 607 [2]: >14.69 mg/L

Compound: CSc1ccc2[nH]c(=O)c(C(c3cccc(Cl)c3)C3(O)CCNC(c4ccc(F)cc4C)C3)cc2c1 (stereo not drawn) [Compound 160]
IC90 STA B29213 [1]: 3.51 mg/L (≈ 6.71 µM)
IC90 MSM 607 [2]: 2.48 mg/L (≈ 4.74 µM)

Compound: CSc1ccc2[nH]c(=O)c(C(c3cccc(Cl)c3)C3(O)CCNC(c4ccc(F)cc4C)C3)cc2c1 (stereo not drawn) [Compound 161]
IC90 STA B29213 [1]: 6.90 mg/L (≈ 13.2 µM)
IC90 MSM 607 [2]: 6.90 mg/L (≈ 13.2 µM)

Compound: CSc1ccc2[nH]c(=O)c(C(c3cccc(Cl)c3)C3(O)CCNC(c4ccc(F)cc4C)C3)cc2c1 (stereo not drawn) [Compound 162]
IC90 STA B29213 [1]: 3.52 mg/L (≈ 6.73 µM)
IC90 MSM 607 [2]: 2.49 mg/L (≈ 4.76 µM)

Compound: COc1nc2ccc(SC)cc2cc1C(c1cccc(Cl)c1)C1(O)CCNC(c2ccc(F)cc2C)C1 (stereo not drawn) [Compound 163]
IC90 STA B29213 [1]: 1.70 mg/L (≈ 3.17 µM)
IC90 MSM 607 [2]: 1.20 mg/L (≈ 2.23 µM)

Compound: COc1nc2ccc(SC)cc2cc1C(c1cccc(Cl)c1)C1(O)CCNC(c2ccc(F)cc2C)C1 (stereo not drawn) [Compound 164]
IC90 STA B29213 [1]: 4.23 mg/L (≈ 7.88 µM)
IC90 MSM 607 [2]: 2.38 mg/L (≈ 4.43 µM)

Compound: COc1nc2ccc(SC)cc2cc1C(c1cccc(Cl)c1)C1(O)CCNC(c2ccc(F)cc2C)C1 (stereo not drawn) [Compound 165]
IC90 STA B29213 [1]: 5.10 mg/L (≈ 9.5 µM)
IC90 MSM 607 [2]: 3.61 mg/L (≈ 6.72 µM)

Compound: COc1nc2ccc(SC)cc2cc1C(c1cccc(Cl)c1)C1(O)CCNC(c2ccc(F)cc2C)C1 (stereo not drawn) [Compound 166]
IC90 STA B29213 [1]: 3.09 mg/L (≈ 5.75 µM)
IC90 MSM 607 [2]: 1.95 mg/L (≈ 3.63 µM)

Compound: COc1nc2ccc(SC)cc2cc1C(c1ccccc1)C1(O)CCNC(c2ccc(F)cc2C)C1 (stereo not drawn) [Compound 167]
IC90 STA B29213 [1]: 3.17 mg/L (≈ 6.31 µM)
IC90 MSM 607 [2]: 1.26 mg/L (≈ 2.51 µM)

Compound: COc1nc2ccc(SC)cc2cc1C(c1ccccc1)C1(O)CCNC(c2ccc(F)cc2C)C1 (stereo not drawn) [Compound 169]
IC90 STA B29213 [1]: 4.96 mg/L (≈ 9.87 µM)
IC90 MSM 607 [2]: 3.94 mg/L (≈ 7.84 µM)

Compound: COc1nc2ccc(SC)cc2cc1C(c1ccccc1)C1(O)CCNC(c2ccc(F)cc2C)C1 (stereo not drawn) [Compound 170]
IC90 STA B29213 [1]: 5.27 mg/L (≈ 10.5 µM)
IC90 MSM 607 [2]: 4.69 mg/L (≈ 9.33 µM)

Second part, the compound after the results:

IC90 STA B29213 [1]: 2.86 mg/L (≈ 5.02 µM)
IC90 [2]: 3.2 mg/L (≈ 5.62 µM)
Compound: COc1nc2ccc(Br)cc2cc1C(c1cccc(Cl)c1)C1(O)CCNC(c2ccc(F)cc2C)C1 (stereo not drawn) [Compound 173]

IC90 STA B29213 [1]: 1.76 mg/L (≈ 3.36 µM)
IC90 MSM 607 [2]: 2.78 mg/L (≈ 5.31 µM)
Compound: CSc1ccc2[nH]c(=O)c(C(c3cccc(Cl)c3)C3(O)CCNC(c4ccc(F)cc4C)C3)cc2c1 (stereo not drawn) [Compound 177]

IC90 STA B29213 [1]: 8.69 mg/L (≈ 17.8 µM)
IC90 MSM 607 [2]: 6.15 mg/L (≈ 12.6 µM)
Compound: CSc1ccc2[nH]c(=O)c(C(c3ccccc3)C3(O)CCNC(c4ccc(F)cc4C)C3)cc2c1 (stereo not drawn) [Compound 179]

IC90 ([1]; Staphylococcus aureus, ATCC29213, 24 h, read-out: IC90 STA B29213): 6.6 mg/L (≈ 13.5 µM)
IC90 [2]: 6.6 mg/L (≈ 13.5 µM)
Compound: CSc1ccc2nc(O)c(C(c3ccccc3)C3(O)CCNC(c4ccc(F)cc4C)C3)cc2c1 (stereo not drawn) [Compound 182]

IC90 STA B29213 [1]: 3.31 mg/L (≈ 6.77 µM)
IC90 MSM 607 [2]: 3.31 mg/L (≈ 6.77 µM)
Compound: CSc1ccc2nc(O)c(C(c3ccccc3)C3(O)CCNC(c4ccc(F)cc4C)C3)cc2c1 (stereo not drawn) [Compound 183]

IC90 STA B29213 [1]: 2.20 mg/L (≈ 3.96 µM)
IC90 [2]: 2.77 mg/L (≈ 4.99 µM)
Compound: COc1nc2ccc(SC)cc2cc1C(c1ccc(Cl)cc1)C1(O)CCNC(Cc2ccc(F)c(F)c2)C1 (stereo not drawn) [Compound 188]

IC90 STA B29213 [1]: 1.39 mg/L (≈ 2.5 µM)
IC90 MSM 607 [2]: 1.76 mg/L (≈ 3.17 µM)
Compound: COc1nc2ccc(SC)cc2cc1C(c1ccc(Cl)cc1)C1(O)CCNC(Cc2ccc(F)c(F)c2)C1 (stereo not drawn) [Compound 190]

IC90 STA B29213 [1]: 7.00 mg/L (≈ 13.4 µM)
IC90 MSM 607 [2]: 13.96 mg/L (≈ 26.8 µM)
Compound: Cc1cc(F)ccc1C1CC(O)(C(c2ccccc2)c2cc3cc(Br)ccc3[nH]c2=O)CCN1 (stereo not drawn) [Compound 192]

IC90 STA B29213 [1]: 3.17 mg/L (≈ 6.31 µM)
IC90 MSM 607 [2]: 2.52 mg/L (≈ 5.01 µM)
Compound: COc1nc2ccc(SC)cc2cc1C(c1ccccc1)C1(O)CCNC(c2ccc(F)cc2C)C1 (stereo not drawn) [Compound 196]

IC90 STA B29213 [1]: >19.28 mg/L
IC90 MSM 607 [2]: >19.28 mg/L
Compound: COc1nc2ccc(S(C)(=O)=O)cc2cc1C(c1ccc(Cl)cc1)C1(O)CCNC(c2ccc(F)cc2C)C1 (stereo not drawn) [Compound 201]

IC90 STA B29213 [1]: 3.63 mg/L (≈ 6.71 µM)
IC90 MSM 607 [2]: 7.23 mg/L (≈ 13.4 µM)
Compound: CSc1ccc2[nH]c(=O)c(C(c3ccc(Cl)cc3)C3(O)CCNC(Cc4ccc(F)c(F)c4)C3)cc2c1 (stereo not drawn) [Compound 204]

IC90 STA B29213 [1]: 14.75 mg/L (≈ 25.1 µM)
IC90 MSM 607 [2]: 14.75 mg/L (≈ 25.1 µM)
Compound: COc1nc2ccc(S(C)(=O)=O)cc2cc1C(c1ccc(Cl)cc1)C1(O)CCNC(Cc2ccc(F)c(F)c2)C1 (stereo not drawn) [Compound 209]

IC90 STA B29213 [1]: 1.86 mg/L (≈ 3.17 µM)
IC90 MSM 607 [2]: 2.94 mg/L (≈ 5.01 µM)
Compound: COc1nc2ccc(S(C)(=O)=O)cc2cc1C(c1ccc(Cl)cc1)C1(O)CCNC(Cc2ccc(F)c(F)c2)C1 (stereo not drawn) [Compound 210]

IC90 STA B29213 [1]: 7.60 mg/L (≈ 13.3 µM)
IC90 MSM 607 [2]: 6.04 mg/L (≈ 10.5 µM)
Compound: CS(=O)(=O)c1ccc2[nH]c(=O)c(C(c3ccc(Cl)cc3)C3(O)CCNC(Cc4ccc(F)c(F)c4)C3)cc2c1 (stereo not drawn) [Compound 212]

IC90 STA B29213 [1]: >17.31 mg/L
IC90 MSM 607 [2]: >17.31 mg/L
Compound: CS(=O)(=O)c1ccc2[nH]c(=O)c(C(c3ccc(Cl)cc3)C3(O)CCNC(Cc4ccc(F)c(F)c4)C3)cc2c1 (stereo not drawn) [Compound 213]

IC90 STA B29213 [1]: >17.57 mg/L
IC90 MSM 607 [2]: >17.57 mg/L
Compound: CS(=O)(=O)c1ccc2[nH]c(=O)c(C(c3ccc(Cl)cc3)C3(O)CCNC(Cc4ccc(F)c(F)c4)C3)cc2c1 (stereo not drawn) [Compound 214]
